Measurements reported in US5789448A, “Benzoylethylene derivative” (Mitsubishi Chemical Corporation, priority 1994, dated 1998).
Where two headings read alike, the source gives them in different places.

What was measured:
[1] = tested on: KB cells of human rhinopharyngeal cancer; test: Cancer cell growth inhibiting activity (KB cells, MTT); format: cell-based; settings: read-out: Cancer cell growth inhibiting activity (IC50)
Protocol: (§1) In order to evaluate the tyrosine kinase inhibiting activity and the cancer cell growth inhibiting activity of the compound of the present invention, tests were carried out in a partially purified human EGF ([…]) receptor tyrosine kinase activity measuring system and a cell culture system using human cancerous cells.
(Cancer cell growth inhibiting activity)
KB cells of human rhinopharyngeal cancer retain EGF receptor on cellular surfaces thereof excessively.
By using these KB cells, investigation of the effect of a sample on growth of cultured cancer cells was carried out by the following method.
2.5×10^3 cells/well of KB cells were sowed on a 96 well dish and cultured in a DMEM:F12 (1:1) medium containing 10% FCS, 50 U/ml penicillin and 50 μg/ml of streptomycin, under conditions of 37° C. and 5% carbonic acid gas for 1 day. Thereafter, a sample dissolved in DMSO was added to the medium (DMSO final concentration: <0.1%) and cultured under the above conditions for 3 days. The sample and the medium were replaced every 24 hours.
The count of the number of living cells was determined by calorimetric quantitation at two wavelengths of 540 nm and 660 nm using a MTT reagent by referring to the measurement method described in Michael C.
At the same time, the count of the number of living cells when the sample was not added was also measured, and the value was defined as b.
The cell growth inhibiting rate was determined by the following formula.
Inhibiting rate (%)=(b-a)/b×100

[2] = molecular target: T1, human EGF (epithelial cell growth factor) receptor tyrosine kinase (Homo sapiens, UniProt P00533); test: Tyrosine kinase inhibiting activity (EGF receptor partially purified from A431 cell membrane fraction, RR-SRC peptide substrate, gamma-32P-ATP); format: biochemical; settings: 10 μM ATP, 1% DMSO, in ice for 30 minutes
T1 construct: to obtain an A431 cell membrane fraction, and this fraction was provided for measurement as a partially purified EGF receptor; endogenous in cells; host or cells: A431 (human squamous cell carcinoma), membrane fraction
Protocol: as §1
(Tyrosine kinase inhibiting activity)
The tyrosine kinase inhibiting activity was measured by using an EGF receptor which was partially purified from an A431 cell line derived from human squamous cell carcinoma and by improving the tyrosine kinase activity measurement method described in Linda J. Pike et al., Proceedings of the National Academy of Sciences of the U.S.A. 79, 1443 (1982).
The detailed method is as described below.
A431 cells were cultured in a Dulbecco modified Eagle's medium (DMEM) containing 10% fetal calf serum (FCS), at 37° C. under 5% carbonic acid gas. The cells were homogenized in a solution containing 10 mM N-2-hydroxyethylpiperazino-N'-2-ethanesulfonic acid (Hepes) buffer (pH 7.4), 0.25M saccharose and 0.1 mM EDTA and then centrifuged at 3000 g for 5 minutes. Further, a supernatant thereof was centrifuged at 10000× g for 30 minutes to obtain an A431 cell membrane fraction, and this fraction was provided for measurement as a partially purified EGF receptor which was an enzyme source.
To a reaction mixture of the above-mentioned A431 cell membrane fraction (10 to 15 μg), a 30 mM Hepes buffer (pH 7.7), 2 mM MnCl2, 50 μM Na3 VO4 and a sample dissolved in dimethylsulfoxide (DMSO) (final concentration: 1% DMSO) was added 100 ng of EGF, and then 75 μg of a synthetic substrate RR-SRC peptide (a peptide described in Sequence No. 1) and 10 μM gamma-^32 P-adenosine triphosphoric acid (37 to 42 KBq) were added thereto to start a reaction.
The volume at that time was 60 μl.
The reaction was carried out in ice for 30 minutes, and the reaction was terminated by adding 6 μl of 10 mg/ml bovine serum albumin and 25 μl of 20% trichloroacetic acid. The reaction mixture was left to stand in ice for 30 minutes.
Next, after the mixture was centrifuged at 5000× g for 2 minutes, 40 μl of the supernatant was sampled and adsorbed to P81 phosphocellulose paper.
This was dipped in a 30% acetic acid solution for 15 minutes to fix, washed by dipping in a 15% acetic acid solution for 15 minutes (washing was repeated four times) and measured the count of ^32 P attached to P81 phosphocellulose paper by a liquid scintillation counter, and this value was defined as A.
At the same time, the counts of a reaction in which the sample tested was not added and a reaction in which both the sample and EGF were not added were measured and were defined as B and C, respectively.
The tyrosine kinase inhibiting rate is determined by the following formula.
Inhibiting rate (%)=100-{(B-A)/(B-C)}×100
From the inhibiting rate obtained by changing the addition concentration of the sample, an IC50 value (50% inhibiting concentration) was calculated.

[3] = KB cells, 3 days, sample and medium replaced every 24 hours, MTT

T1 sequence (P00533 25-1210): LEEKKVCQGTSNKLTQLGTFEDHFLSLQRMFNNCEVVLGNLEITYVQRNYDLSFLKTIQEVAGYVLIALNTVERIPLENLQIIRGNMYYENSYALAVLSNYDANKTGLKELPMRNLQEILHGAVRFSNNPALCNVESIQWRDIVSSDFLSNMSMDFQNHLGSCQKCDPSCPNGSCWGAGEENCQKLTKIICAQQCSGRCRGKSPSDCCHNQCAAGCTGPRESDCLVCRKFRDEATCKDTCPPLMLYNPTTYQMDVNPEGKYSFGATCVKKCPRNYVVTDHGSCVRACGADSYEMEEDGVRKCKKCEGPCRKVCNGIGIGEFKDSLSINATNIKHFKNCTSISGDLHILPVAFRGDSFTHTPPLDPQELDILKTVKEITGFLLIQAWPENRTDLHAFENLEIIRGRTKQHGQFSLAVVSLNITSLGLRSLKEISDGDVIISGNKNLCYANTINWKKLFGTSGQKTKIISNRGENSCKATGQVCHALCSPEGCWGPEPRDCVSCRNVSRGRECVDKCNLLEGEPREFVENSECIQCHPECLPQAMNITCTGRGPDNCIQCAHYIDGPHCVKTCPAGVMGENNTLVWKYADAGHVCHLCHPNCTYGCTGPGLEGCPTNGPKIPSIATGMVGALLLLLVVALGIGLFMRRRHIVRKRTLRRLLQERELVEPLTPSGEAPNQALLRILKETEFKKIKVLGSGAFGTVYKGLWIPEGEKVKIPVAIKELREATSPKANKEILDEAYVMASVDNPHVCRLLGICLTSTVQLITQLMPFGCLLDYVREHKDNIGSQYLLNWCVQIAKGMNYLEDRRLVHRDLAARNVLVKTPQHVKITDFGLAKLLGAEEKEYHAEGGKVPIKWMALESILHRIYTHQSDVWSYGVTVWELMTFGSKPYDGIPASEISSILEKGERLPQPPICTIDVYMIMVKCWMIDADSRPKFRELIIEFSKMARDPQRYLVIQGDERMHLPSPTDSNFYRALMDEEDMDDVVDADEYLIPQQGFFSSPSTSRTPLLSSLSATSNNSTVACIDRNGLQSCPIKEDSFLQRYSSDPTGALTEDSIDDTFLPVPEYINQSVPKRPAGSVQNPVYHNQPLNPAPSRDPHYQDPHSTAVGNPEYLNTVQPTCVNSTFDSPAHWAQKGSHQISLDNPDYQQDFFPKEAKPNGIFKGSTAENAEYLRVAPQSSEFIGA

Row | Structure (SMILES) | IC50 ([1]; KB) [nM] | IC50 [2] [nM] | IC50 [1, 3] [nM]
1 | COc1ccc(C(=O)C=CC#N)cc1OC [compound 5] | 620 | 340 | 
2 | COC(=O)C=CC(=O)c1ccc(OC)c(OC)c1 [compound 26] | 1900 | 860 | 
3 | COC(=O)C=CC(=O)c1ccc(OC)cc1 [compound 29] | 3900 | 9400 | 
4 | COc1ccc(C(=O)C=CCN2CCCCC2)cc1OC [compound 97] | 2600 | 8200 | 
5 | CC(C(=O)Nc1ccccc1)=C(C)C(=O)c1ccccc1 [compound 253] | 420 | 38000 | 
6 | CCN(CC)C(C)(C)C(=CC(=O)c1ccc(OC)c(OC)c1)S(=O)(=O)c1ccccc1 [compound 278] | 950 | 1700 | 
7 | COc1cc(C(=O)C=C(C(C)(C)N2CCCCC2)S(=O)(=O)c2ccccc2)cc2c1OCO2 [compound 290] | 830 | 5000 | 
8 | CCN(CC)C(C)(C)C(=CC(=O)c1ccc(OC)c(OC)c1)S(=O)(=O)c1ccc(C)cc1 [compound 293] | 230 | 1100 | 
9 | COc1ccc(C(=O)C=C(C(C)(C)N2CCC(C)CC2)S(=O)(=O)c2ccccc2)cc1OC [compound 327] |  | 27300 | 5000
10 | COc1ccc(C(=O)C=C(CN(C(C)C)C(C)C)S(=O)(=O)c2ccccc2)cc1OC [compound 335] | 3100 | 27900 | 
11 | CCN(CC)C(C)(C)C(C#N)=CC(=O)c1ccc(OC)c(OC)c1 [compound 349] |  | 5800 | 2000
12 | CCN(CC)C(C)(C)C(=CC(=O)c1ccc(OC)c(OC)c1)S(=O)(=O)c1ccc([N+](=O)[O-])cc1 [compound 350] | 570 | 1400 | 
13 | CCN(CC)C(C)(C)C(=CC(=O)c1ccc(OC)c(OC)c1)S(=O)(=O)c1cccs1 [compound 352] | 630 | 470 | 
